Test results published in publication PMC6721044, “Ratiometric BRET Measurements of ATP with a Genetically-Encoded Luminescent Sensor” (Sensors (Basel, Switzerland), 2019).

Biological target: T1, ARSeNL (mScarlet-ε-NanoLuc); ε subunit of the ATP synthase from Bacillus subtilis (Bacillus subtilis, UniProt P37812)
T1 construct: gene atpC; isolated ε subunit (from ATeam1.03) flanked by N-terminal mScarlet and C-terminal NanoLuc as reporters
Assay: BRET ratio (mScarlet/NanoLuc) dose-response, microplate reader, Hill fit
Assay type: binding
Settings: read-out: KD (apparent)

T1 sequence (P37812 whole entry): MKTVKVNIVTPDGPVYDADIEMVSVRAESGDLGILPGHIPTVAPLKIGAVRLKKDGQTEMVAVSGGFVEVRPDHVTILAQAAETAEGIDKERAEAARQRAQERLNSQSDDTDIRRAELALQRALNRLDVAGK

## Nc1ncnc2c1ncn2[C@@H]1O[C@H](COP(=O)(O)OP(=O)(O)OP(=O)(O)O)[C@@H](O)[C@H]1O [ATP]
  Kd: 1100 ± 100 µM
